Where “and” joins values, the source holds several entries; their conditions need not be identical. Identical values can stand only once. Like-named read-outs stand apart in the source and are kept apart here.
Experiments:
[1] = system: HIV-1 containing N155H integrase; type: cell-based; conditions: cells infected with mutant vector
[2] = system: HIV-1 integrase N155H; experiment: In vitro ST assay, N155H mutant IN; type: biochemical
[3] = system: HIV-1 containing wild-type (WT) integrase; experiment: Antiviral assay, cells infected with HIV-1 vector containing WT integrase; type: cell-based
[4] = system: HIV-1 integrase G140S/Q148H; conditions: mutant enzyme vs WT enzyme; pre-cleaved DNA, Mg2+
[5] = system: HOS cells; experiment: Cellular cytotoxicity; type: cell-based, human; conditions: HOS cells
[6] = Cellular cytotoxicity; type: cell-based, human; conditions: human, HOS osteosarcoma cells
[7] = system: HIV-1 integrase Y143R; experiment: In vitro ST assay, Y143R mutant IN; type: biochemical; conditions: mutant enzyme vs WT enzyme; pre-cleaved DNA, Mg2+
[8] = system: HIV-1 containing G140S/Q148H integrase; type: cell-based; conditions: cells infected with mutant vector
[9] = system: HIV-1 containing Y143R integrase; type: cell-based; conditions: cells infected with mutant vector
[10] = Human immunodeficiency virus 1, read-out: EC50 (WT)

Structure (SMILES)	Fold-loss of antiviral potency relative to virus containing WT enzyme, N155H [1]	Fold less sensitive than raltegravir to N155H mutation (in vitro) ([2]; comparison of fold-losses, enzyme assay)	Fold-loss of potency relative to WT, N155H (ST, in vitro) ([2]; mutant enzyme vs WT enzyme, pre-cleaved DNA, Mg2+)	EC50 [3, 10] [µM]	Fold-loss of potency relative to WT, G140S/Q148H (ST, in vitro) [4]	Cytotoxicity fold lower than catechol-containing analogue 3 ([5]; ratio of CC50 values)	CC50 at 48 h [6] [µM]	Fold-loss of potency relative to WT, Y143R (ST, in vitro) [7]	Fold-loss of antiviral potency relative to virus containing WT enzyme, G140S/Q148H [8]	Fold-loss of antiviral potency relative to virus containing WT enzyme, Y143R [9]	EC50 ([3]; read-out: EC50 (WT), HIV-1 vector with WT integrase) [µM]	CC50 ([5]; 48 hrs) [µM]	Fold-loss of antiviral potency relative to virus containing WT enzyme, G140S/Q148H ([8]; listed as MK-0536) [fold]
COC(=O)CCc1c2c(c(O)c(=O)n1C(C)C)C(=O)N(Cc1ccc(F)c(Cl)c1)C2=O [5e, Methyl 3-(2-(3-chloro-4-fluorobenzyl)-7-hydroxy-5-isopropyl-1,3,6-trioxo-2,3,5,6-tetrahydro-1H-pyrrolo[3,4-c]pyridin-4-yl)propanoate]	3 fold and 3x fold	approximately 2 fold	4 fold and 4x fold	9.2 ± 1.9	12 fold and 12x fold	approximately 70 fold	392 ± 66	2 fold and 2x fold	2 fold and 2x fold	2 fold and 2x fold	–	–	–
Cc1nnc(C(=O)NC(C)(C)c2nc(C(=O)NCc3ccc(F)cc3)c(O)c(=O)n2C)o1 [compound 1, raltegravir, reference compound]	–	–	–	0.004 ± 0.002	–	–	> 100	–	–	–	–	–	–
CC(C)n1c(C(=O)N(C)C)c2c(c(O)c1=O)C(=O)N(Cc1ccc(F)c(Cl)c1)CC2 [compound 2, MK-0536, reference compound]	1x fold	–	–	–	–	–	–	–	5x fold	0.4x fold	0.017 ± 0.004	> 100	5
